Test results reported in patent US4900815A, “Sulfated polysaccharide DS4152” (Daiichi Seiyaku Co., Ltd., priority 1986, dated 1990).
Several values for one entry are separate records, joined by “and”; a condition that tells them apart may be missing. Equal entries are not always repeated. Structures can show the parent of a compound that is named as a salt.

Key:
[1] = system: CAM vascularization; assay: Antiangiogenic Effects (Ex Vivo) of steroids with or without DS4152; set-up: species or system chick (blood from male ICR mice)
Description: (§1) Male ICR mice were orally administered with a solution of DS4152 dissolved in physiological saline. A saline suspension of a steroid was administered orally or intramuscularly, either in combination with DS4152 or alone. Blood samples collected after 6 hours were prevented from coagulation with a 0.313% aqueous solution of sodium citrate. Each blood sample was added to the 5 day CAM in the same manner as in the direct method. The inhibitory effects were judged after two days. Results were expressed by inhibition ratios (%) of CAM vascularization of each group to that of control group with a blood sample collected from the mice with saline. (Table 11).

[2] = system: Sarcoma 180 (S180); assay: Antitumor Test, S180, tamoxifen citrate with DS4152 or heparins; assay type: in vivo, mouse (male ICR)
Description: (§2) C3H/He male mice (5 weeks old) were each inoculated subcutaneously with 4×10^6 cells of mouse mammary carcinoma MM46. Mice were randomized after measuring the diameters of the resultant tumors on the 7th day. In addition, male ICR mice (5 weeks old) were each inoculated subcutaneously with 1×10^6 cells of Sarcoma 180 (S180). On the 3rd days, the mice were randomized. A saline suspension of tamoxifen citrate was administered once a day for 4 days to the MM46-bearing mice on the 7th day after inoculation and to the S180-bearing mice on the 3rd day after inoculation. DS4152 and heparins were individually dissolved in physiological saline and administered either orally or subcutaneously once a day for 4 days at a dose of 30 mg/kg/day or 300 mg/kg/day. On the 5th day after the beginning of the administration, the animals were sacrificed. The tumor weights were compared with those of the control mice administered only with physiological saline (Table 15).

[3] = system: CAM angiogenesis; assay: CAM Angiogenesis Inhibition Test (Direct Method), DS4152 and heparins with tamoxifen citrate; assay type: in vivo, chick; settings: for 50% vascularization inhibition dose: with tamoxifen citrate 1 μg
Description: (§3) Using chick embryos, a test was carried out in accordance with the following method, which was a partial modification of the Taylor-Folkman'smethod Nature, 297, 307 (1982)].
(§4) Either DS4152 or heparin dissolved in physiological saline was added to the CAM of each 4-5 day old fertilized chicken 1 egg (species: NORIN CROSS) and then the eggs were incubated at 37° C.
(§5) Two days after the addition of the agent, the degree of the CAM vascularization was compared with that of a control to which physiological saline was only added. The 50% vascularization inhibition dose (ID50) was calculated by the probit method.
(§6) A test was conducted in the same manner as in Example 2. Antiestrogens were separately dissolved or suspended in physiological saline and were added either alone or together with DS4152. The eggs with the agents were incubated at 37° C. Two days after the addition of the agents, the degrees of development of CAM vessels were individually compared with that of a control to which physiological saline was only added.

[4] = system: angiogenesis of the chick CAM; assay: CAM angiogenesis inhibition, various steroids alone or with DS4152; assay type: in vivo; settings: for degree of increase: ID50 alone vs. in the presence of 10 ng of DS4152; for ID50, used in combination with DS4152: in the presence of 10 ng of DS4152; for ID50, alone: steroid alone
[5] = system: breast cancer; settings: Oncologia, 10, 72 (1984); cited from earlier work
[6] = system: Sarcoma 180 (S180); assay: Antitumor Test, Sarcoma 180, DS4152 and cortisone acetate; assay type: in vivo, mouse (male ICR)
Description: Male ICR mice (5 weeks old) were each inoculated subcutaneously with 1×10^6 cells of Sarcoma 180 (S180). From the 3rd day, a saline suspension of cortisone acetate was administered at a dose of 250 mg/kg/day for 3 days and then at a dose of 100 mg/kg/day for 1 day.
DS4152 was dissolved in physiological saline and administered at a dose of 0.61 or 6.1 mg/mouse subcutaneously or orally once a day for 4 days. On the 7th day after the inoculation, the mice were sacrificed to compare their tumor weights with those of the control mice.

[7] = system: CAM vascularization of chick embryos; assay: CAM Angiogenesis Inhibition Test (Direct Method), combination with cortisone acetate; assay type: in vivo; settings: 0.5 μg per embryo, alone
Description: as §3, §4, §5
In the same manner as in Example 2, combination effects of a steroid and DS4152 were examined. […] The activities of DF4639 and H Fraction were also investigated in the comparison with that of DS4152.

[8] = system: vascularization in chorioallantoic membrane (CAM) of chick embryo, rabbit cornea and hamster cheek pouches; settings: cited from earlier work
[9] = system: CAM angiogenesis; assay: CAM Angiogenesis Inhibition Test (Direct Method), antiestrogens with or without DS4152; assay type: in vivo, chick
Description: as §3, §4, §5, §6

[10] = system: CAM vascularization; assay: Antiangiogenic Effects (Ex Vivo) of tamoxifen with or without DS4152; set-up: species or system chick (blood from mice); settings: for Inhibition rate of angiogenesis: tamoxifen citrate 100 mg/kg s.c.
Description: as §1
In the same manner as in Example 8, antiangiogenic effects of tamoxifen were examined with or without DS4152.

[11] = system: mouse mammary carcinoma MM46; assay: Antitumor Test, MM46, tamoxifen citrate with DS4152; assay type: in vivo, mouse (male C3H/He)
Description: as §2

[12] = system: CAM vascularization of chick embryos; assay: CAM Angiogenesis Inhibition Test (Direct Method); assay type: in vivo, chick (NORIN CROSS); settings: even at 100 μg
Description: as §3, §4, §5

[13] = 300 mg/kg oral + tamoxifen citrate 100 mg/kg s.c.
[14] = 300 mg/kg oral + tamoxifen citrate 100 mg/kg s.c., p < 0.05
[15] = cortisone acetate alone, 250 then 100 mg/kg/day
[16] = steroid p.o. 5 mg/kg, DS4152 30 mg/kg p.o.
[17] = antiestrogen 1 μg, DS4152 0.01 μg
[18] = antiestrogen 10 μg, DS4152 0 μg
[19] = antiestrogen 10 μg, DS4152 0.01 μg
[20] = tamoxifen citrate 100 mg/kg s.c. alone

C[C@]12C[C@H]3S[C@H]3C[C@@H]1CC[C@@H]1[C@@H]2CC[C@]2(C)[C@@H](O)CC[C@@H]12 [Epithiostanol]
Inhibition rate of angiogenesis ([1]; steroid i.m. 5 mg/kg, DS4152 0): 4.0%
Inhibition rate of angiogenesis ([1]; steroid i.m. 5 mg/kg, DS4152 30 mg/kg p.o.): 5.2%
Inhibition rate of angiogenesis ([1]; steroid i.m. 50 mg/kg, DS4152 0): 13.4%
Inhibition rate of angiogenesis ([1]; steroid i.m. 50 mg/kg, DS4152 30 mg/kg p.o.): 23.4%
Inhibition rate of angiogenesis ([1]; steroid i.m. 100 mg/kg, DS4152 0): 24.2%
Inhibition rate of angiogenesis ([1]; steroid i.m. 100 mg/kg, DS4152 30 mg/kg p.o.): 37.6%

low molecular weight heparin
T/C [2, 13]: 66%
Tumor weight, mean ± S.D. [2, 14]: 202 ± 22 mg
50% vascularization inhibition dose [3]: 1.37 µg

C[C@]12CCC(=O)C=C1CC[C@@H]1[C@@H]2[C@@H](O)C[C@@]2(C)[C@H]1CC[C@]2(O)C(=O)CO [Hydrocortisone]
degree of increase [4]: 6.9 times
ID50, used in combination with DS4152 [4]: 0.16 μg/embryo
ID50, alone [4]: 1.10 μg/embryo

C[C@]1(O)CC[C@H]2[C@@H]3CCC4=CC(=O)CC[C@]4(C)[C@@]3(F)[C@@H](O)C[C@@]21C [Fluoxymesterone]
degree of increase [4]: 10.3 times
ID50, used in combination with DS4152 [4]: 0.12 μg/embryo
ID50, alone [4]: 1.24 μg/embryo
effectivity (anti-breast cancer) [5]: 20-30%

CC(=O)OCC(=O)[C@@]1(O)CC[C@H]2[C@@H]3CCC4=CC(=O)CC[C@]4(C)[C@H]3C(=O)C[C@@]21C [Cortisone acetate]
degree of increase [4]: 7.1 times
ID50, used in combination with DS4152 [4]: 0.17 μg/embryo
ID50, alone [4]: 1.20 μg/embryo
T/C [6, 15]: 94.2%
Tumor weight, mean ± standard error [6, 15]: 0.340 ± 0.162
tumor weight compared with saline group ([6]; cortisone acetate only): not different
influence on vascularization [7]: not to give any influence to the vascularization
Inhibition rate of angiogenesis ([1]; steroid p.o. 5 mg/kg, DS4152 0): 7.7%
Inhibition rate of angiogenesis [1, 16]: 75.1%

C[C@H]1C[C@H]2[C@@H]3CCC4=CC(=O)C=C[C@]4(C)[C@@]3(F)[C@@H](O)C[C@]2(C)[C@@]1(O)C(=O)CO [Betamethasone]
degree of increase [4]: 16.0 times
ID50, used in combination with DS4152 [4]: 0.05 μg/embryo
ID50, alone [4]: 0.80 μg/embryo

CC(=O)O[C@]1(C(C)=O)CC[C@H]2[C@@H]3C[C@H](C)C4=CC(=O)CC[C@]4(C)[C@H]3CC[C@@]21C [Medroxyprogesterone acetate]
degree of increase [4]: 2.7 times
ID50, used in combination with DS4152 [4]: 0.42 μg/embryo
ID50, alone [4]: 1.12 μg/embryo

CC(=O)[C@H]1CC[C@H]2[C@@H]3CCC4=CC(=O)CC[C@]4(C)[C@H]3CC[C@]12C [Progesterone]
degree of increase [4]: 2.1 times
ID50, used in combination with DS4152 [4]: 0.49 μg/embryo
ID50, alone [4]: 1.02 μg/embryo

C[C@]12CC[C@@H](O)C[C@H]1CC[C@@H]1[C@@H]2CC[C@@]2(C)[C@H]1CC[C@]2(O)C(=O)CO [Tetrahydro S]
degree of increase [4]: 100.0 times
ID50, used in combination with DS4152 [4]: 0.01 μg/embryo
ID50, alone [4]: 1.00 μg/embryo
Inhibition rate of angiogenesis ([1]; steroid p.o. 1 mg/kg, DS4152 0): -2.6%
Inhibition rate of angiogenesis ([1]; steroid p.o. 1 mg/kg, DS4152 30 mg/kg p.o.): 71.7%
Inhibition rate of angiogenesis ([1]; steroid p.o. 5 mg/kg, DS4152 0): -17.3%
Inhibition rate of angiogenesis [1, 16]: 80.7%

CCC(=O)O[C@H]1CC[C@H]2[C@@H]3CCC4=CC(=O)CC[C@]4(C)[C@H]3CC[C@]12C [testosterone propionate]
effectivity (anti-breast cancer) [5]: 20-30%

C[C@@H]1C[C@H]2[C@@H]3CCC4=CC(=O)C=C[C@]4(C)[C@@]3(F)[C@@H](O)C[C@]2(C)[C@@]1(O)C(=O)CO [dexamethasone]
suppression of experimentally induced vascularization [8]: effective

C[C@H]1C[C@@H]2[C@H]([C@@H](O)C[C@@]3(C)[C@H]2CC[C@]3(O)C(=O)CO)[C@@]2(C)C=CC(=O)C=C12 [6α-Methylprednisolone]
degree of increase [4]: 38.3 times
ID50, used in combination with DS4152 [4]: 0.03 μg/embryo
ID50, alone [4]: 1.15 μg/embryo
suppression of experimentally induced vascularization [8]: effective

C[C@]12CC[C@@H]3c4ccc(O)cc4CC[C@H]3[C@@H]1CC[C@@H]2O [17β-Estradiol]
degree of increase [4]: 7.0 times
ID50, used in combination with DS4152 [4]: 0.28 μg/embryo
ID50, alone [4]: 1.96 μg/embryo

C[C@@]12CCC[C@H]1[C@@H]1CC[C@H]3CCCC[C@]3(C)[C@H]1CC2 [5α-Androstane]
degree of increase [4]: 8.0 times
ID50, used in combination with DS4152 [4]: 0.29 μg/embryo
ID50, alone [4]: 2.32 μg/embryo

C[C@]12C=CC(=O)C=C1CC[C@@H]1[C@@H]2[C@@H](O)C[C@@]2(C)[C@H]1CC[C@]2(O)C(=O)CO [Prednisolone]
degree of increase [4]: 16.3 times
ID50, used in combination with DS4152 [4]: 0.08 μg/embryo
ID50, alone [4]: 1.30 μg/embryo
suppression of experimentally induced vascularization [8]: effective

CCN(CC)CCOc1ccc(C(=C(Cl)c2ccccc2)c2ccccc2)cc1 [Clomiphene citrate]
percent inhibition of CAM vascularization ([9]; antiestrogen 1 μg, DS4152 0 μg): -3.9%
percent inhibition of CAM vascularization [9, 17]: 32.6%
percent inhibition of CAM vascularization [9, 18]: -11.4%
percent inhibition of CAM vascularization [9, 19]: 42.0%

CC/C(=C(\c1ccccc1)c1ccc(OCCN(C)C)cc1)c1ccccc1 [Tamoxifen citrate]
Inhibition rate of angiogenesis ([10]; DS4152 0): -6.1% and -11.0%
Inhibition rate of angiogenesis ([10]; DS4152 30 mg/kg oral): 40.0%
Inhibition rate of angiogenesis ([10]; DS4152 30 mg/kg subcutaneous): 61.2%
influence on vascularization of CAM ([10]; tamoxifen citrate only): no influence
inhibition of CAM vascularization ([10]; tamoxifen with subcutaneous or oral DS4152 (30 mg/kg)): inhibited markedly the CAM vascularization
percent inhibition of CAM vascularization ([9]; antiestrogen 1 μg, DS4152 0 μg): -0.4%
percent inhibition of CAM vascularization [9, 17]: 56.2%
percent inhibition of CAM vascularization [9, 18]: 2.9%
percent inhibition of CAM vascularization [9, 19]: 70.5%
effect on growth of sarcoma S180 ([2]; administered alone): did not affect the growth
T/C [2, 20]: 97%
Tumor weight, mean ± S.D. [2, 20]: 298 ± 31 mg
effect on growth of mammary carcinoma MM46 ([11]; single administration (alone)): inhibited
T/C [11, 20]: 6.6%
Tumor weight, mean ± S.D. ([11]; tamoxifen citrate 100 mg/kg s.c. alone, p < 0.05): 273 ± 27 mg
effect on vascularization ([3]; 1 μg, alone): too little to affect the vascularization

heparin
T/C [2, 13]: 66%
Tumor weight, mean ± S.D. [2, 14]: 203 ± 13 mg
50% vascularization inhibition dose [3]: 3.43 µg
effect on CAM vascularization [12]: no effect

COc1ccc2c(c1)CCC(c1ccccc1)=C2c1ccc(OCCN2CCCC2)cc1 [Nafoxidine chloride]
percent inhibition of CAM vascularization ([9]; antiestrogen 1 μg, DS4152 0 μg): -4.3%
percent inhibition of CAM vascularization [9, 17]: 23.1%
percent inhibition of CAM vascularization [9, 18]: -3.2%
percent inhibition of CAM vascularization [9, 19]: 31.6%
